# Experimental data: US11261429B2, “Enriched and expanded human cord blood stem cells for treatment of hematological disorders” (ICAHN SCHOOL OF MEDICINE AT MOUNT SINAI, priority 2013, dated 2022)
# How the values were obtained:
# NSG mice = experiment: Homing assay of re-isolated CD34+ cells in NSG mice; assay type: in vivo; conditions: 16 and 48 hours after infusion, versus control conditions
# Experimental: The homing of re-isolated CD34+ cells (5×10^5/mouse) after treatment under control conditions or with VPA was performed as previously described (Shivtiel et at, “CD45 Regulates Homing and Engraftment of Immature Normal and Leukemic Human Cells in Transplanted Immunodeficient Mice,” Exp. Hematol. 39(12):1161-1170 (2011), which is hereby incorporated by reference in its entirety). The recipient NSG mice were purchased from the Jackson Laboratory and sublethally irradiated (300 cGy) 4 hours prior to infusion of the re-isolated CD34+ cells via the tail vein. Sixteen and 48 hours after their infusion, BM cells were harvested from 2 femurs and 2 tibias from each recipient mouse and analyzed by flow cytometry for the presence of human CD34+ cells using a human CD34-APC mAb. The homing of these cell populations was determined by quantitating the number of CD34+ cells per 10^6 acquired events in the BM of the recipient mice. […] Eight NSG mice received CD34+ cells cultured under control conditions, and 10 mice received CD34+ cells from VPA-containing cultures.
# HDAC6 = experiment: HDAC protein levels in CB-MNCs, Western blot densitometry; assay type: cell-based, human; conditions: 24 hr, SCR 8 μM, C433 80 μM, VPA 1.25 mM
# Text: Cellular proteins were separated by SDS-PAGE using Novex (Invitrogen) and transferred by iBlot (Invitrogen). The membranes were probed with mAbs against individual histone deacetylases (HDAC1, HDAC2, HDAC3, HDAC4, HDAC5, HDAC6, and β-actin; Cell Signaling Technology) and developed using a chemiluminescence system with HRP-conjugated secondary antibodies (Amersham Biosciences) according to the manufacturer's instructions.
smiles,measurement,setting,value
"CCCC(CCC)C(=O)O [VPA, valproic acid]",homing of CD34+ cells to the marrow of NSG mice,NSG mice,increased horning of CD34+ cells
same,HDAC6 expression relative to b-ACTIN (%),HDAC6,54.2 ± 7.9%
